# Measurements published in patent publication US12441739B2, “Glucagon receptor antagonist and use thereof” (LANZHOU UNIVERSITY, priority 2021, dated 2025).
# Values joined by “and” are separate entries in the source; they are usually repeats but may differ in a detail not shown here. Equal entries are not always repeated. Where two headings read alike, the source gives them in different places.
# Biological target: T1, human glucagon receptor (hGCGR) (Homo sapiens, UniProt P47871)
# T1 construct: host or cells: HEK293
# T1 sequence (P47871 26-477): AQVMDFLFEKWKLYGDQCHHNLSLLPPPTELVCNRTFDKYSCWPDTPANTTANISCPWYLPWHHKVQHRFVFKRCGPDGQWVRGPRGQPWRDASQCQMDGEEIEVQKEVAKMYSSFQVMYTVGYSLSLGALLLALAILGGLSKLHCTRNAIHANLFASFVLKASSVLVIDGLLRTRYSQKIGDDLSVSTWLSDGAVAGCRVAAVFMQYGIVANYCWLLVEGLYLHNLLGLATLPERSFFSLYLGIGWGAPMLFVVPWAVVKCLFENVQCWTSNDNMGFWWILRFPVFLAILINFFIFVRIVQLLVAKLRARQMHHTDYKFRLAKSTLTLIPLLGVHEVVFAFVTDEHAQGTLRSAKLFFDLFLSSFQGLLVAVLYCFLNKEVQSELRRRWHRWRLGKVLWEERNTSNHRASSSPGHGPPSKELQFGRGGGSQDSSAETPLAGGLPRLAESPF
# Experiment: HTRF second messenger cAMP response experiment (called cell viability test) in HEK293 cells with glucagon peptide segment
# Type: cell-based
# Conditions: for inhibitory activity of glucagon receptor (in words, from cAMP response curves): FIG. 5 / FIG. 14
# Protocol: In order to determine the antagonistic activity of the compound A on the glucagon receptor in the above embodiments, a cell viability test is carried out. The specific implementation is as follows.
# A known human glucagon receptor (hGCGR) antagonist drug is selected as a positive control, and the compound A in the above embodiments, a glucagon peptide segment (that is, human full-length glucagon), and human embryonic kidney cells containing target receptor molecules are mixed. The glucagon peptide segment binds to hGCGR to activate the hGCGR signaling pathway and release the second messenger cAMP. The compound A acts as an antagonist to inhibit the activity of hGCGR.
# In an exemplary embodiment, a known hGCGR antagonist drug (L-168,049) is selected as a positive control. […] In addition, in view of the human glucagon receptor on the cell membrane of human embryonic kidney cells HEK293, HEK293 is used to test the drug activity of the human glucagon antagonist. In this embodiment, different concentrations of compound A of the present disclosure and the positive control are respectively mixed with glucagon peptide segments and HEK293 cells, the second messenger cAMP is detected through homogeneous time resolved fluorescence (HTRF), and a half maximal inhibitory concentration value of each compound is calculated according to the intensity value of HTRF.
# (§1) In an exemplary embodiment, the activity of the compound A is tested using the HTRF technique. Specifically, after activation of the glucagon receptor by the glucagon peptide segment, the second messenger cAMP is released from the glucagon receptor cells, the second messenger cAMP may be detected by HTRF, and the half maximal inhibitory concentration (IC50) of the tested compound may be calculated according to the fluorescence intensity.
# In an exemplary embodiment, 11 identical concentration gradients are set for the compounds A1 and A2 respectively. The activities of the compounds A1 and A2 are determined by the HTRF second messenger cAMP response experiment in triplicate.
# Step S910. Select an antagonist drug of hGCGR as a positive control, and mix each target drug small molecule, a glucagon peptide segment, and human embryonic kidney cells containing the target receptor molecule. The glucagon peptide segment binds to hGCGR to activate the hGCGR signaling pathway and release the second messenger cAMP. The target drug molecule acts as an antagonist to inhibit the activity of hGCGR.
# In an exemplary embodiment, an antagonist drug (such as L-168,049) of hGCGR is selected as a positive control. In addition, in view of the human glucagon receptor on the cell membrane of human embryonic kidney cells (such as HEK293), HEK293 may be used to test the drug activity of the human glucagon antagonist. The target drug small molecule, the glucagon peptide segment, and the HEK293 cells containing the target receptor molecule are mixed. The glucagon peptide segment is used to bind to hGCGR to activate the hGCGR signaling pathway and promote the release of the second messenger cAMP. The target drug molecule acts as an antagonist to inhibit the activity of hGCGR.
# Step S920. Detect the second messenger cAMP through HTRF, and determine a half maximal inhibitory concentration value of each target drug small molecule according to an intensity value of HTRF.
# as §1, with “each target drug small molecule (such as 30 target drug small molecules shown in Table 2)” for “the compound A”, “tested by” for “tested”, “drug molecule” for “tested compound”, “intensity. […]” for “intensity.”
# [1] = concentration gradient LogM −5, HEK293 cells, glucagon peptide segment, HTRF cAMP, triplicate columns
# [2] = concentration gradient LogM −5.477121, HEK293 cells, glucagon peptide segment, HTRF cAMP, triplicate columns
# [3] = concentration gradient LogM −5.954243, HEK293 cells, glucagon peptide segment, HTRF cAMP, triplicate columns
# [4] = concentration gradient LogM −7.862728, HEK293 cells, glucagon peptide segment, HTRF cAMP, triplicate columns
# [5] = concentration gradient LogM −8.339849, HEK293 cells, glucagon peptide segment, HTRF cAMP, triplicate columns
# [6] = concentration gradient LogM −6.431364, HEK293 cells, glucagon peptide segment, HTRF cAMP, triplicate columns
# [7] = concentration gradient LogM −6.908485, HEK293 cells, glucagon peptide segment, HTRF cAMP, triplicate columns
# [8] = concentration gradient LogM −7.385606, HEK293 cells, glucagon peptide segment, HTRF cAMP, triplicate columns
# [9] = concentration gradient LogM −9.294091, HEK293 cells, glucagon peptide segment, HTRF cAMP, triplicate columns
smiles,measurement,setting,value
CC(C)(C)NC(=O)NC(=O)CSc1nc(-c2cccs2)c(-c2cccs2)[nH]1 [Compound C25],IC50,,> 10 µM
"COc1ccc(NC(=O)c2c(O)c3c4c(sc3[nH]c2=O)C[C@@H](C)CC4)cc1Cl [Compound C13, (7S)—N-(3-chloro-4-methoxyphenyl)-4-hydroxy-7-methyl-2-oxo-5,6,7,8-tetrahydro-1H-[1]benzothiolo[2,3-b]pyridine-3-carboxamide]",IC50,,0.446 µM
same,"inhibitory activity of glucagon receptor (in words, from cAMP response curves)",,have the activity
same,"inhibitory activity of glucagon receptor (in words, from cAMP response curves)",listed as A1,good inhibitory activity of glucagon receptor
same,Inhibition percentage,[1],98.37% and 95.2799% and 96.15%
same,Inhibition percentage,"concentration gradient LogM −5, triplicate, HEK293, cAMP HTRF, listed as A1",98.37 percentage and 95.2799 percentage and 96.15 percentage
same,Inhibition percentage,[2],87.84% and 83.28% and 83.51%
same,Inhibition percentage,"concentration gradient LogM −5.477121, triplicate, HEK293, cAMP HTRF, listed as A1",87.84 percentage and 83.28 percentage and 83.51 percentage
same,Inhibition percentage,[3],75.44% and 83.24% and 79.3%
same,Inhibition percentage,"concentration gradient LogM −5.954243, triplicate, HEK293, cAMP HTRF, listed as A1",75.44 percentage and 83.24 percentage and 79.3 percentage
same,Inhibition percentage,[4],7.62% and −2.135% and −0.781%
O=C(NCCCCCCNC(=O)NCc1cccnc1)NCc1cccnc1 [Compound C5],IC50,,> 10 µM
CNC(=O)NC(=O)CSc1nc2cc(-c3ccc(F)cc3)sc2c(=O)n1N [Compound C30],IC50,,> 10 µM
O=C(CCNC(=O)NC1CCCCC1)NNc1ccccc1C(F)(F)F [Compound C27],IC50,,> 10 µM
same,Inhibition percentage,[5],−24.7315% and −29.8299% and −20.459%
CNC(=O)Cc1ccccc1NC(=O)NCCC(=O)NC1CCCC1 [Compound C24],IC50,,> 10 µM
CSc1cccc(NC(=O)c2c(O)c3sccc3[nH]c2=O)c1 [Compound C14],IC50,,0.422 µM
same,"inhibitory activity of glucagon receptor (in words, from cAMP response curves)",,have the activity
same,"inhibitory activity of glucagon receptor (in words, from cAMP response curves)",listed as A2,good inhibitory activity of glucagon receptor
same,Inhibition percentage,[1],103.2945% and 102.1097% and 103.2736%
same,Inhibition percentage,"concentration gradient LogM −5, triplicate, HEK293, cAMP HTRF, listed as A2",103.2945 percentage and 102.1097 percentage and 103.2736 percentage
same,Inhibition percentage,[2],106.1285% and 105.9119% and 107.3553%
same,Inhibition percentage,"concentration gradient LogM −5.477121, triplicate, HEK293, cAMP HTRF, listed as A2",106.1285 percentage and 105.9119 percentage and 107.3553 percentage
same,Inhibition percentage,[3],84.32% and 92.48% and 91.05%
same,Inhibition percentage,"concentration gradient LogM −5.954243, triplicate, HEK293, cAMP HTRF, listed as A2",84.32 percentage and 92.48 percentage and 91.05 percentage
same,Inhibition percentage,[6],40.16% and 62.74% and 47.65%
same,Inhibition percentage,"concentration gradient LogM −6.431364, triplicate, HEK293, cAMP HTRF, listed as A2",40.16 percentage and 62.74 percentage and 47.65 percentage
COc1cc(NC(=O)CNC(=O)CNC(=O)c2cccs2)c(OC)cc1Cl [Compound C26],IC50,,> 10 µM
CC(=O)c1ccccc1NC(=O)c1c(O)c2c3c(sc2[nH]c1=O)C[C@H](C)CC3 [Compound C11],IC50,,> 10 µM
same,Inhibition percentage,[1],21.46% and 27.01% and 27.99%
same,Inhibition percentage,[5],11.37% and 16.25% and 12.52%
O=S(=O)(Nc1ccc(Cl)cc1)c1ccc(NC(=S)Nc2ccccc2)cc1 [Compound C4],IC50,,> 10 µM
COc1ccc2cc(C(=O)NCCNc3ccc(C)nn3)[nH]c2c1 [Compound C15],IC50,,> 10 µM
same,Inhibition percentage,[1],2.451% and 0.02571% and 3.529%
same,Inhibition percentage,[7],−19.189% and −13.1875% and −18.6652%
same,Inhibition percentage,[4],3.911% and 12.71% and 11.16%
O=C(CNC(=O)NCCCN1CCCCCC1=O)Nc1ccc(F)c(F)c1 [Compound C22],IC50,,> 10 µM
same,Inhibition percentage,[8],−5.735% and 1.578% and −3.875%
NS(=O)(=O)c1ccc(NC(=S)NNC(=S)NC2CCCCC2)cc1 [Compound C1],IC50,,> 10 µM
same,Inhibition percentage,[2],−14.4564% and −9.717% and −14.5956%
same,Inhibition percentage,[5],23.36% and 11.78% and 18.98%
O=C(CCCCC(=O)NNC(=S)Nc1ccc(Br)cc1)NNC(=S)Nc1ccc(Br)cc1 [Compound C6],IC50,,> 10 µM
same,Inhibition percentage,[4],−28.7792% and −19.4453% and −24.9236%
CSc1cccc(NC(=O)CCNS(=O)(=O)c2ccc(NC(C)=O)cc2)c1 [Compound C17],IC50,,> 10 µM
O=C(COC(=O)CCNS(=O)(=O)c1ccc(Cl)cc1)NC(=O)NCc1ccco1 [Compound C18],IC50,,> 10 µM
same,Inhibition percentage,[3],−6.593% and −12.6979% and −7.936%
O=S(=O)(NCCc1ccccc1)c1ccc(NC(=S)Nc2ccccc2)cc1 [Compound C2],IC50,,> 10 µM
same,Inhibition percentage,[9],1.325% and 0.8006% and 5.407%
CN1C(=O)Cc2cc(S(=O)(=O)CCC(=O)NCCc3ccccc3)ccc21 [Compound C10],IC50,,> 10 µM
same,Inhibition percentage,[3],1.692% and 1.059% and 6.715%
same,Inhibition percentage,[7],−33.073% and −31.3707% and −29.8413%
"CCCOc1ccc(Br)cc1-c1cc(-c2ccc(Cl)cc2)[nH]c1-c1ccncc1 [L-168,049, 4-[3-(5-bromo-2-propoxyphenyl)-5-(4-chlorophenyl)-1H-pyrrol-2-yl]pyridine, reference compound]",IC50,"HEK293, cAMP HTRF, 11 concentrations, L-168,049 positive control per group of ten compounds",0.0615 µM and 0.0422 µM
same,Inhibition percentage,[1],100.4281% and 100.5604% and 100.8895%
same,Inhibition percentage,"concentration gradient LogM −5, triplicate, HEK293, cAMP HTRF",100.4281 percentage
same,Inhibition percentage,[2],98.6132% and 96.62% and 98.1315%
same,Inhibition percentage,"concentration gradient LogM −5.477121, triplicate, HEK293, cAMP HTRF",98.6132 percentage
same,Inhibition percentage,[3],98.05% and 95.17% and 94.46%
same,Inhibition percentage,"concentration gradient LogM −5.954243, triplicate, HEK293, cAMP HTRF",98.05 percentage
same,Inhibition percentage,[6],93.05% and 91.9% and 88.0059%
same,Inhibition percentage,"concentration gradient LogM −6.431364, triplicate, HEK293, cAMP HTRF",93.05 percentage
same,Inhibition percentage,[7],89.46% and 74.79% and 78.16%
same,Inhibition percentage,"concentration gradient LogM −6.908485, triplicate, HEK293, cAMP HTRF",89.46 percentage
same,Inhibition percentage,[8],46.69% and 16.31%
same,Inhibition percentage,"concentration gradient LogM −7.385606, triplicate, HEK293, cAMP HTRF",47.8261 percentage
same,Inhibition percentage,[4],33.52% and 15.3532%
same,Inhibition percentage,"concentration gradient LogM −7.862728, triplicate, HEK293, cAMP HTRF",28.98 percentage
same,Inhibition percentage,[5],−19.5336% and −9.209%
same,Inhibition percentage,"concentration gradient LogM −8.339849, triplicate, HEK293, cAMP HTRF",3.941 percentage
same,Inhibition percentage,"concentration gradient LogM −8.81697, triplicate, HEK293, cAMP HTRF",−8.051 percentage
same,Inhibition percentage,[9],19.0859% and −1.84%
same,Inhibition percentage,"concentration gradient LogM −9.294091, triplicate, HEK293, cAMP HTRF",−3.763 percentage
same,Inhibition percentage,"concentration gradient LogM −9.771213, HEK293 cells, glucagon peptide segment, HTRF cAMP, triplicate columns",−1.911% and 6.132% and 1.646%
same,Inhibition percentage,"concentration gradient LogM −9.771213, triplicate, HEK293, cAMP HTRF",−1.911 percentage
